Assay results reported in US20100298141A1, “SUBSTITUTED PYRIDINE N-OXIDE HERBICIDES” (E. I. DU PONT DE NEMOURS AND COMPANY, priority 2007, published 2010).

Columns and labels:
[1] = test system: field sandbur; experiment: Test G preemergence test; format: in vivo, Cenchrus incertus; details: scale 0 to 100
[2] = test system: soybean; experiment: Test G preemergence test; format: in vivo, Glycine max; details: scale 0 to 100
[3] = test system: spring wheat; experiment: Test D preemergence test; format: in vivo, Triticum aestivum; details: scale 0 to 100
Summary of the method: (§1)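 Preemergence application to planted seeds; compounds in non-phytotoxic solvent blend plus surfactant. Dash = not tested.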

[4] = test system: winter wheat; experiment: Test D preemergence test; format: in vivo, Triticum aestivum; details: scale 0 to 100
Summary of the method: as §1

[5] = test system: annual bluegrass; experiment: Test D preemergence test; format: in vivo, Poa annua; details: scale 0 to 100
Summary of the method: as §1

[6] = test system: corn; experiment: Test G preemergence test; format: in vivo, Zea mays; details: scale 0 to 100
[7] = test system: wild oat; experiment: Test D preemergence test; format: in vivo, Avena fatua; details: scale 0 to 100
Summary of the method: as §1

[8] = test system: goosegrass; experiment: Test G preemergence test; format: in vivo, Eleusine indica; details: scale 0 to 100
[9] = test system: cotton; experiment: Test G preemergence test; format: in vivo, Gossypium hirsutum; details: scale 0 to 100
[10] = test system: sorghum; experiment: Test G preemergence test; format: in vivo, Sorghum vulgare; details: scale 0 to 100
[11] = test system: green foxtail; experiment: Test D preemergence test; format: in vivo, Setaria viridis; details: scale 0 to 100
Summary of the method: as §1

[12] = test system: yellow nutsedge; experiment: Test G preemergence test; format: in vivo, Cyperus esculentus; details: scale 0 to 100
[13] = test system: lambsquarters; experiment: Test G preemergence test; format: in vivo, Chenopodium album; details: scale 0 to 100
[14] = test system: winter barley; experiment: Test D preemergence test; format: in vivo, Hordeum vulgare
Summary of the method: as §1

[15] = test system: barnyardgrass; experiment: Test B flooded paddy test; format: in vivo, Echinochloa crus-galli; details: Flood, 250 g ai/ha, 13 to 15 days; scale 0 to 100, 0 no effect, 100 complete control
Excerpt: (§2) At time of treatment, test pots were flooded to 3 cm above the soil surface, treated by application of test compounds directly to the paddy water, and then maintained at that water depth for the duration of the test. Treated plants and controls were maintained in a greenhouse for 13 to 15 days, after which time all species were compared to controls and visually evaluated. […] A dash (-) response means no test result.

[16] = test system: tall waterhemp; experiment: Test G preemergence test; format: in vivo, Amaranthus tuberculatos; details: scale 0 to 100
[17] = test system: millet; experiment: Test G preemergence test; format: in vivo, Panicum miliaceum; details: scale 0 to 100
[18] = test system: blackgrass; experiment: Test D preemergence test; format: in vivo, Alopecurus myosuroides; details: scale 0 to 100
Summary of the method: as §1

[19] = test system: littleseed canarygrass; experiment: Test D preemergence test; format: in vivo, Phalaris minor; details: scale 0 to 100
Summary of the method: as §1

[20] = test system: barnyardgrass; experiment: Test G preemergence test; format: in vivo, Echinochloa crus-galli; details: scale 0 to 100
[21] = test system: duck salad; experiment: Test B flooded paddy test; format: in vivo, Heteranthera limosa; details: Flood, 250 g ai/ha, 13 to 15 days; scale 0 to 100, 0 no effect, 100 complete control
Excerpt: as §2

[22] = test system: eastern black nightshade; experiment: Test G preemergence test; format: in vivo, Solanum ptycanthum; details: scale 0 to 100
[23] = test system: Italian ryegrass; experiment: Test D preemergence test; format: in vivo, Lolium multiflorum; details: scale 0 to 100
Summary of the method: as §1

[24] = test system: giant foxtail; experiment: Test G preemergence test; format: in vivo, Setaria faberii; details: scale 0 to 100
[25] = test system: itchgrass; experiment: Test G preemergence test; format: in vivo, Rottboellia cochinchinensis; details: scale 0 to 100

Cn1nc(C(F)(F)F)c(C[S+]([O-])c2cccc[n+]2[O-])c1OC(F)F (stereo not shown) [Compound 3]
Plant response rating, Sandbur ([1]; 31 g ai/ha): 0 | Plant response rating, Sandbur ([1]; 62 g ai/ha): 35 | Plant response rating, Sandbur ([1]; 125 g ai/ha): 95 | Plant response rating, Sandbur ([1]; 250 g ai/ha): 95 | Plant response rating, Soybean ([2]; 31 g ai/ha): 0 | Plant response rating, Soybean ([2]; 62 g ai/ha): 15 | Plant response rating, Soybean ([2]; 125 g ai/ha): 20 | Plant response rating, Soybean ([2]; 250 g ai/ha): 35 | Plant response rating, Wheat, Spring ([3]; 31 g ai/ha): 0 | Plant response rating, Wheat, Spring ([3]; 62 g ai/ha): 0 | Plant response rating, Wheat, Spring ([3]; 125 g ai/ha): 15 | Plant response rating, Wheat, Spring ([3]; 250 g ai/ha): 20 | Plant response rating, Wheat, Winter ([4]; 31 g ai/ha): 0 | Plant response rating, Wheat, Winter ([4]; 62 g ai/ha): 10 | Plant response rating, Wheat, Winter ([4]; 125 g ai/ha): 15 | Plant response rating, Wheat, Winter ([4]; 250 g ai/ha): 40 | Plant response rating, Bluegrass ([5]; 31 g ai/ha): 0 | Plant response rating, Bluegrass ([5]; 62 g ai/ha): 20 | Plant response rating, Bluegrass ([5]; 125 g ai/ha): 100 | Plant response rating, Bluegrass ([5]; 250 g ai/ha): 100 | Plant response rating, Corn ([6]; 31 g ai/ha): 0 | Plant response rating, Corn ([6]; 62 g ai/ha): 0 | Plant response rating, Corn ([6]; 125 g ai/ha): 10 | Plant response rating, Corn ([6]; 250 g ai/ha): 60 | Plant response rating, Oat, Wild ([7]; 31 g ai/ha): 0 | Plant response rating, Oat, Wild ([7]; 62 g ai/ha): 0 | Plant response rating, Oat, Wild ([7]; 125 g ai/ha): 10 | Plant response rating, Oat, Wild ([7]; 250 g ai/ha): 20 | Plant response rating, Goosegrass ([8]; 31 g ai/ha): 65 | Plant response rating, Goosegrass ([8]; 62 g ai/ha): 80 | Plant response rating, Goosegrass ([8]; 125 g ai/ha): 100 | Plant response rating, Goosegrass ([8]; 250 g ai/ha): 100 | Plant response rating, Cotton ([9]; 31 g ai/ha): 0 | Plant response rating, Cotton ([9]; 62 g ai/ha): 0 | Plant response rating, Cotton ([9]; 125 g ai/ha): 10 | Plant response rating, Cotton ([9]; 250 g ai/ha): 25 | Plant response rating, Sorghum ([10]; 31 g ai/ha): 0 | Plant response rating, Sorghum ([10]; 62 g ai/ha): 10 | Plant response rating, Sorghum ([10]; 125 g ai/ha): 55 | Plant response rating, Sorghum ([10]; 250 g ai/ha): 100 | Plant response rating, Foxtail, Green ([11]; 31 g ai/ha): 0 | Plant response rating, Foxtail, Green ([11]; 62 g ai/ha): 35 | Plant response rating, Foxtail, Green ([11]; 125 g ai/ha): 60 | Plant response rating, Foxtail, Green ([11]; 250 g ai/ha): 100 | Plant response rating, Nutsedge, Yellow ([12]; 31 g ai/ha): 0 | Plant response rating, Nutsedge, Yellow ([12]; 62 g ai/ha): 15 | Plant response rating, Nutsedge, Yellow ([12]; 125 g ai/ha): 65 | Plant response rating, Nutsedge, Yellow ([12]; 250 g ai/ha): 65 | Plant response rating, Lambsquarters ([13]; 31 g ai/ha): 0 | Plant response rating, Lambsquarters ([13]; 62 g ai/ha): 0 | Plant response rating, Lambsquarters ([13]; 125 g ai/ha): 100 | Plant response rating, Lambsquarters ([13]; 250 g ai/ha): 100 | Plant response rating, Barley ([14]; Preemergence, 62 g ai/ha, scale 0 to 100): 0 | Plant response rating, Barley ([14]; Preemergence, 125 g ai/ha, scale 0 to 100): 0 | Plant response rating, Barley ([14]; Preemergence, 31 g ai/ha, scale 0 to 100): 0 | Plant response rating, Barley ([14]; preemergence, 250 g ai/ha, scale 0 (no effect) to 100 (complete control)): 15 | Plant response rating, Barnyardgrass [15]: 60 | Plant response rating, Waterhemp ([16]; 31 g ai/ha): 0 | Plant response rating, Waterhemp ([16]; 62 g ai/ha): 0 | Plant response rating, Waterhemp ([16]; 125 g ai/ha): 100 | Plant response rating, Waterhemp ([16]; 250 g ai/ha): 100 | Plant response rating, Millet ([17]; 31 g ai/ha): 0 | Plant response rating, Millet ([17]; 62 g ai/ha): 0 | Plant response rating, Millet ([17]; 125 g ai/ha): 15 | Plant response rating, Millet ([17]; 250 g ai/ha): 90 | Plant response rating, Blackgrass ([18]; 31 g ai/ha): 0 | Plant response rating, Blackgrass ([18]; 62 g ai/ha): 20 | Plant response rating, Blackgrass ([18]; 125 g ai/ha): 100 | Plant response rating, Blackgrass ([18]; 250 g ai/ha): 100 | Plant response rating, Canarygrass ([19]; 31 g ai/ha): 0 | Plant response rating, Canarygrass ([19]; 62 g ai/ha): 40 | Plant response rating, Canarygrass ([19]; 125 g ai/ha): 100 | Plant response rating, Canarygrass ([19]; 250 g ai/ha): 100 | Plant response rating, Barnyardgrass ([20]; 31 g ai/ha): 0 | Plant response rating, Barnyardgrass ([20]; 62 g ai/ha): 70 | Plant response rating, Barnyardgrass ([20]; 125 g ai/ha): 100 | Plant response rating, Barnyardgrass ([20]; 250 g ai/ha): 100 | Plant response rating, Ducksalad [21]: 90 | Plant response rating, Nightshade ([22]; 31 g ai/ha): 0 | Plant response rating, Nightshade ([22]; 62 g ai/ha): 60 | Plant response rating, Nightshade ([22]; 125 g ai/ha): 65 | Plant response rating, Nightshade ([22]; 250 g ai/ha): 100 | Plant response rating, Ryegrass, Italian ([23]; 31 g ai/ha): 0 | Plant response rating, Ryegrass, Italian ([23]; 62 g ai/ha): 35 | Plant response rating, Ryegrass, Italian ([23]; 125 g ai/ha): 45 | Plant response rating, Ryegrass, Italian ([23]; 250 g ai/ha): 95 | Plant response rating, Foxtail, Giant ([24]; 31 g ai/ha): 0 | Plant response rating, Foxtail, Giant ([24]; 62 g ai/ha): 75 | Plant response rating, Foxtail, Giant ([24]; 125 g ai/ha): 100 | Plant response rating, Foxtail, Giant ([24]; 250 g ai/ha): 100 | Plant response rating, Itchgrass ([25]; 31 g ai/ha): 0 | Plant response rating, Itchgrass ([25]; 62 g ai/ha): 45 | Plant response rating, Itchgrass ([25]; 125 g ai/ha): 60 | Plant response rating, Itchgrass ([25]; 250 g ai/ha): 90
